Series [1] concerns the target Cytochrome P450 2C9 (Homo sapiens, UniProt P11712). Nature of the series: Activity of recombinant human CYP2C9 expressed in Saccharomyces cerevisiae AH22 cells assessed as enzyme-mediated sesamin dicatechol formation after 15 mins by HPLC analysis in presence of NADPH. The series is classed as ADME, cell-based. The settings on record: ah22, 0.25 h.
The target of series [2] is T1, Cytochrome P450 2C19 (Homo sapiens, UniProt P33261). Nature of the series: Activity of recombinant human CYP2C19 expressed in Saccharomyces cerevisiae AH22 cells assessed as enzyme-mediated compound formation treated with sesamin at 2 to 20 uM after 15 mins by HPLC analysis in presence of NADPH. The settings on record: ah22, 0.25 h. The series is classed as ADME, cell-based.

Series [3] can be described thus: Drug metabolism in human liver microsomes assessed as UGT-mediated glucuronidation per mg of protein after 10 to 30 mins by HPLC analysis in presence of UDP-GlcUA. It is filed as ADME. Background: Liver microsomes are vesicles of endoplasmic reticulum, rich in cytochrome P450 enzymes.
Series [4] has as its system UGT. Nature of the series: Drug metabolism in human liver microsomes assessed as UGT-mediated glucuronidation after 10 to 30 mins by HPLC analysis in presence of UDP-GlcUA. The series is classed as ADME.
The nature of series [5]: Drug metabolism in Sprague-Dawley rat liver microsomes assessed as CYP450-mediated catecholization per mg of protein after 10 to 30 mins by HPLC analysis in presence of NADPH. It is filed as ADME.
Series [6] in a line: Drug metabolism in human liver microsomes assessed as CYP450-mediated catecholization per mg of protein after 10 to 30 mins by HPLC analysis in presence of NADPH. The series is classed as ADME.
Series [7] addresses T1, Cytochrome P450 2C19. Nature of the series: Activity of recombinant human CYP2C19 expressed in Saccharomyces cerevisiae AH22 cells assessed as enzyme-mediated sesamin dicatechol formation after 15 mins by HPLC analysis in presence of NADPH. It is filed as ADME, cell-based. The settings on record: ah22, 0.25 h.
In series [8] the test system is CYP450. Nature of the series: Drug metabolism in human liver microsomes assessed as CYP450-mediated catecholization after 10 to 30 mins by HPLC analysis in presence of NADPH. It is filed as ADME.
Series [9] deals with CYP450. Nature of the series: Drug metabolism in Sprague-Dawley rat liver microsomes assessed as CYP450-mediated catecholization after 10 to 30 mins by HPLC analysis in presence of NADPH. The series is classed as ADME.
For series [10], the system named is UGT. The series can be described thus: Drug metabolism in Sprague-Dawley rat liver microsomes assessed as UGT-mediated glucuronidation after 10 to 30 mins by HPLC analysis in presence of UDP-GlcUA. It is filed as ADME.
A short description of series [11]: Drug metabolism in Sprague-Dawley rat liver microsomes assessed as UGT-mediated glucuronidation per mg of protein after 10 to 30 mins by HPLC analysis in presence of UDP-GlcUA. It is filed as ADME.
Series [12] concerns Liver microsome. The series can be described thus: Drug level in human liver microsomes treated with sesamin after 30 mins by HPLC analysis in presence of NADPH. The settings on record: 0.5 h. It is filed as ADME.

Data on one compound can be found in ChEMBL document CHEMBL3525932, “Comparison of metabolism of sesamin and episesamin by drug-metabolizing enzymes in human liver” (Drug Metab Dispos, 2012).

T1 sequence (P33261 whole entry): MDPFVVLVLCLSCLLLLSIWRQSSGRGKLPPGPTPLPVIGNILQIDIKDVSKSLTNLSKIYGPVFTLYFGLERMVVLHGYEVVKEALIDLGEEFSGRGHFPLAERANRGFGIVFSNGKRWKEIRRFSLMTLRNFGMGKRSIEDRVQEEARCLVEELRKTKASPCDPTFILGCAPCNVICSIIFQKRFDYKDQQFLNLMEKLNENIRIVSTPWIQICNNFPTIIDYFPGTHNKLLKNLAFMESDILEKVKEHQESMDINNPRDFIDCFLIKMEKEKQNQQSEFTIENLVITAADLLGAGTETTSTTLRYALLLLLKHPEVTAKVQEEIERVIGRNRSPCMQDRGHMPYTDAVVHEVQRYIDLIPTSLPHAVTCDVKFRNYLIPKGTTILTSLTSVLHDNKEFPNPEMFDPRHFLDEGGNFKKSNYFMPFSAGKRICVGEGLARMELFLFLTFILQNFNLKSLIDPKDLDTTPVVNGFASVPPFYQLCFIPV
Chain of Cytochrome P450 2C9 (P11712 whole entry): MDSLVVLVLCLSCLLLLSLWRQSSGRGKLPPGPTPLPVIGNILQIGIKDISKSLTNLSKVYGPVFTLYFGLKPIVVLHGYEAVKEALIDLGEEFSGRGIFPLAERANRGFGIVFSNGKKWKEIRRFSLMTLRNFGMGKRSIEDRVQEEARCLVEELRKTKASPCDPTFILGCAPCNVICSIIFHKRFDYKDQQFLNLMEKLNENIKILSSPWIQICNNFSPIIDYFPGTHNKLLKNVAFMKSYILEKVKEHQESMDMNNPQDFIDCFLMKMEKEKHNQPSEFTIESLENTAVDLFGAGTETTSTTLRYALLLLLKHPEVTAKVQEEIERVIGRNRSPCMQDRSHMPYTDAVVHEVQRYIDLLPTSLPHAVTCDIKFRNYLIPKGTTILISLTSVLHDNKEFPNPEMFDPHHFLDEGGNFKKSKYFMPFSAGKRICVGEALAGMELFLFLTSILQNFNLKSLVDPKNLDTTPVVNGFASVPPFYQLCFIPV

The Vmax is the top rate of the reaction or transport when substrate is in excess. As a reminder, the Km is the substrate concentration at which the rate is half of its maximum. Regarding `Oc1ccc([C@H]2OC[C@H]3[C@@H]2CO[C@@H]3c2ccc3c(c2)OCO3)cc1O`, the Drug metabolism in series [1] is on record as 0.83 nmol/min; in series [2], “metabolite_detected”; in series [7], 10.4 nmol/min; in [12], “metabolite_detected”. In addition, the maximum rate (Vmax) in series [3] stood at 6 nmol/min/mg; in [5], 3.7 nmol/min/mg; in series [6], 0.44 nmol/min/mg; in series [11] it was 1.1 nmol/min/mg. Also, the Km in series [4] came out at 18 µM; in series [8] it was 18.8 µM; in series [9], 5.3 µM; in series [10] it was 20.3 µM.
